Assay results published in patent US12391686B2, “Compounds and uses thereof” (Foghorn Therapeutics Inc., priority 2019, dated 2025).

Key:
Assay type in all cases: cell-based
SYO1 cells [1] = assay: Cell cycle analysis (Click-iT Plus EdU Flow Cytometry Assay); conditions: 200 nM or 1 μM, 8 or 13 days, as compared to DMSO and lenalidomide
Method: (§1) Procedure: SYO1 cells were treated for 8 or 13 days with DMSO, a BRD9 degrader (Compound 1) at 200 nM or 1 μM, or an E3 ligase binder (lenalidomide) at 200 nM. Compounds were refreshed every 5 days. Cell cycle analysis was performed using the Click-iT™ Plus EdU Flow Cytometry Assay (Invitrogen). The apoptosis assay was performed using the Annexin V-FITC Apoptosis Detection Kit (Sigma A9210). Assays were performed according to the manufacturer's protocol.

[2] = system: non-synovial control cancer cell lines (293T, A549, G401); assay: Growth of non-synovial control cancer cell lines, Example 3; conditions: FIGS. 5, 6, 7
Method: (§2) Procedures: Cells were treated with DMSO or the BRD9 degrader, Compound 1, at indicated concentrations, and proliferation was monitored from day 7 to day 14 by measuring confluency over time using an IncuCyte live cell analysis system (FIG. 5). Growth medium and compounds were refreshed every 3-4 days.
(§3) Cells were seeded into 12-well plates and treated with DMSO, 1 μM BRD9 inhibitor, Compound 2 (also known as BI-7273, see Martin et al, J Med Chem. 59(10):4462-4475 (2016); see structure of Compound 2 below), or 1 μM BRD9 degrader, Compound 1.
(§4) The number of cells was optimized for each cell line. Growth medium and compounds were refreshed every 3-5 days. SYO1, Yamato, A549, 293T and HS-SY-II cells were fixed and stained at day 11. ASKA cells were fixed and stained at day 23. Staining was done by incubation with crystal violet solution (0.5 g Crystal Violet, 27 ml 37% Formaldehyde, 100 mL 10×PBS, 10 mL Methanol, 863 dH2O to 1 L) for 30 min followed by 3× washes with water and drying the plates for at least 24 h at room temperature. Subsequently plates were scanned on an Odyssey CLx Imaging system (FIG. 6).
(§5) Cells were seeded into 96-well ultra low cluster plate (Costar, #7007) in 200 μL complete media and treated at day 2 with DMSO, Staurosporin, or BRD9 degarder, Compound 1, at indicated doses (FIG. 7). Media and compounds were changed every 5 d and cell colonies were imaged at day 14.

[3] = system: non-synovial control cancer cell lines (RD, HCT116, and Calu6); assay: Crystal violet growth assay in non-synovial control cancer cell lines, Example 4; conditions: treated daily, day 14, FIG. 9
Method: (§6) Procedure: Cells were seeded into 6-well or 12-well plates and were treated daily with a BRD9 degrader (Compound 1), a bromo-domain BRD9 binder (Compound 2), E3 ligase binder (lenalidomide), DMSO, or staurosporin (positive control for cell killing), at indicated concentrations. The number of cells was optimized for each cell line. Growth media was refreshed every 5 days. By day 14, medium was removed, cells were washed with PBS, and stained using 500 μL of 0.005% (w/v) crystal violet solution in 25% (v/v) methanol for at least 1 hour at room temperature. Subsequently plates were scanned on an Odyssey CLx Imaging system.

SYO1 cells [4] = assay: Apoptosis assay (Annexin V-FITC Apoptosis Detection Kit); conditions: 200 nM or 1 μM, 8 days, as compared to DMSO controls
Method: as §1

[5] = system: synovial sarcoma cell lines (SYO1, Yamato, HS-SY-II, and ASKA); assay: Growth of synovial sarcoma cell lines (IncuCyte confluency, crystal violet, colony imaging), Example 3; conditions: 1 μM or indicated doses, FIGS. 5, 6, 7
Method: as §2, §3, §4, §5

[6] = system: synovial sarcoma cell lines (SYO1, HS-SY-II, and ASKA); assay: Crystal violet growth assay in synovial sarcoma cell lines, Example 4
Method: as §6

COc1cc(-c2cn(C)c(=O)c3cnccc23)cc(OC)c1CN(C)CC(=O)NCCOCCOCCNc1cccc2c1C(=O)N(C1CCC(=O)NC1=O)C2=O (stereo not shown) [Compound 1]
numbers of cells in the S-phase of the cell cycle (SYO1 cells [1]): reduced numbers of cells in the S-phase
inhibition of the growth of the cells [2]: does not result in inhibition of the growth
inhibition of the growth of the cells [3]: did not result in inhibition of the growth
numbers of early- and late-apoptotic cells (SYO1 cells [4]): increased numbers of early- and late-apoptotic cells
inhibition of the growth of the cells [5]: inhibition of the growth of the cells
inhibition of the growth of the cells ([6]; SYO1, HS-SY-II, ASKA, treated daily, day 14, FIG. 8): inhibition of the growth of the cells
growth inhibition compared with the other treatments ([6]; all synovial cell lines, versus Compound 2 and lenalidomide): most significant growth inhibition
